According to US10646508B1, “Method of safely administering nitrate dietary supplements and compositions” (ThermoLife International, LLC, priority 2007, dated 2020):

What was measured:
[1] = Intrinsic dissolution profiles (modified Wood's apparatus, USP type II); format: physicochemical
Experimental: Objective: The objective of this study was to determine the dissolution characteristics of three different forms of commercially available Creatine including Creatine nitrate (CN), Creatine monohydrate (CM) and buffered Creatine (BC) under different temperature and pH. Methods: Intrinsic dissolution studies were carried out at 37° C. and room temperature in pH 2.5 and 7.4 buffer using modified Wood's apparatus. CN, CM and BC samples (˜0.5 g) were compressed in the dies with constant surface area of 1.21 cm2 using a Carver press at 2000 psi with a dwell time of 10 sec. These dies were placed in the USP dissolution apparatus (type II) containing 140 ml of dissolution media, with paddle speed of 50 rpm. Dissolution medium were collected at definite time intervals over a period of 3 hours for CN and 7 hours for both CM and BC and analyzed for Creatine using a validated HPLC method. Results: A plot of the amount of Creatine dissolved (mg)/surface area (cm2) versus time gives the slope (k′) which is directly proportional to the dissolution rate constant. The k′ (mg/cm2 hr) values for CN, CM and BC in pH 2.5 buffer at room temperature were 293.0±3.48, 59.1±2.06 and 71.1±0.59. At 37° C. these k′ (mg/cm2 hr) values were 327.3±2.66, 97.9±0.88 and 117.9±1.12, respectively. In pH 7.4 buffer, the k′ (mg/cm2 hr) values for CN, CM and BC were 278.9±14.6, 52.1±0.22 and 50.6±0.95 at room temperature and 319.5±14.3, 86.0±5.05 and 96.9±9.28 at 37° C., respectively. Conclusions: The dissolution rates of all three Creatine forms were higher at 37° C. as compared to at room temperature. […] However, the dissolution rate of CN was not affected by the pH of the dissolution media. […] Results of this study further predict a better bioavailability of CN as compared to CM and BC.

[2] = Chemical stability of Creatine forms in solution; format: physicochemical; settings: for pH of samples, initial: start of storage; for degradation rate constant (k): ~10 mg/ml
Experimental: Methods: A known concentration (˜10 mg/ml) of CN, CM and BC were prepared in both pH 2.5 and pH 6.8 buffer and stored in stability chambers in screw-capped bottles at 37° C. and 40° C., respectively. Samples were collected at predetermined time points and analyzed for Creatine and degradation products if any, using a validated HPLC method. Changes in the pH, clarity and color of the samples were also determined. The order of degradation and rate constant were determined by graphical method. Results: The degradation rate constants (k) for CN, CM and BC at 37° C. in pH 2.5 buffer were 0.075±0.001, 0.119±0.011 and 0.108±0.002 (day-1) while that at 40° C. in pH 6.8 buffer were 0.115±0.001, 0.015±0.001 and 0.013±0.002 (day-1), respectively. The pH of CN samples at 40° C. in pH 6.8 buffer changed from 2.83±0.01 to 4.31±0.01 within a period of 12 days. The pH changes noticed at 37° C. in pH 2.5 buffer samples over the same period of time for CM, and BC were 3.08±0.01 to 4.12±0.01 and 3.11±0.01 and 4.16±0.01, respectively. […] No change in the color and the clarity was noticed over 12 days. Conclusions: All the Creatine samples followed first order degradation kinetics under both these experimental conditions. […] The major degradation product detected was Creatinine. For CN the increase in pH was higher at 40° C. in pH 6.8 buffer as compared to 37° C. in pH 2.5 buffer. However, opposite effect was noticed for both CM and BC.

[3] = pH 2.5 buffer, room temperature
[4] = pH 7.4 buffer, room temperature

CN(CC(=O)O)C(=N)N.O [CM, Creatine monohydrate, reference compound]
k' (slope, proportional to intrinsic dissolution rate constant) ([1]; pH 2.5 buffer, 37° C.): 97.9±0.88 mg/cm2 hr | k' (slope, proportional to intrinsic dissolution rate constant) [1, 3]: 59.1±2.06 mg/cm2 hr | k' (slope, proportional to intrinsic dissolution rate constant) ([1]; pH 7.4 buffer, 37° C.): 86.0±5.05 mg/cm2 hr | k' (slope, proportional to intrinsic dissolution rate constant) [1, 4]: 52.1±0.22 mg/cm2 hr | pH of samples, after storage ([2]; 37° C. in pH 2.5 buffer, over 12 days): 4.12±0.01 | pH of samples, initial ([2]; 37° C. in pH 2.5 buffer): 3.08±0.01

CN(CC(=O)O)C(=N)N.O=[N+]([O-])O [CN, Creatine nitrate]
k' (slope, proportional to intrinsic dissolution rate constant) ([1]; pH 2.5 buffer, 37° C.): 327.3±2.66 mg/cm2 hr | k' (slope, proportional to intrinsic dissolution rate constant) [1, 3]: 293.0±3.48 mg/cm2 hr | k' (slope, proportional to intrinsic dissolution rate constant) ([1]; pH 7.4 buffer, 37° C.): 319.5±14.3 mg/cm2 hr | k' (slope, proportional to intrinsic dissolution rate constant) [1, 4]: 278.9±14.6 mg/cm2 hr | degradation rate constant (k) ([2]; 37° C. in pH 2.5 buffer): 0.075 ± 0.001 day⁻¹ | pH of samples, initial ([2]; 40° C. in pH 6.8 buffer): 2.83±0.01 | pH of samples, after storage ([2]; 40° C. in pH 6.8 buffer, within a period of 12 days): 4.31±0.01 | degradation rate constant (k) ([2]; 40° C. in pH 6.8 buffer): 0.115 ± 0.001 day⁻¹
